{
  "source": "paper PMC9409351",
  "about": "“Differential Ganglioside and Cholesterol Depletion by Various Cyclodextrin Derivatives and Their Effect on Synaptosomal Glutamate Release” (International Journal of Molecular Sciences, 2022)",
  "origin": "cited, not measured here",
  "key": {"cerebellar granule cells": {"tested_on": "cerebellar granule cells", "set-up": "method as in PMID 12897192", "conditions": "in addition to cholesterol extraction; cited from earlier work"}, "[1]": {"tested_on": "cell model of GM1 gangliosidosis", "set-up": "method as in doi:10.1007/s10847-018-0835-8", "conditions": "immunofluorescence staining; cited from earlier work"}},
  "data": [
    {"compound": "methylated beta-cyclodextrins [MBCD]", "values": [
      {"measurement": "Sphingomyelin and GSL levels after treatment", "setting": "cerebellar granule cells", "value": "reduction in the sphingomyelin and GSL levels"}
    ]},
    {"compound": "COCC1OC2OC3C(COC)OC(OC4C(COC)OC(OC5C(COC)OC(OC6C(COC)OC(OC7C(COC)OC(OC1C(O)C2OC)C(OC)C7O)C(OC)C6O)C(OC)C5O)C(OC)C4O)C(OC)C3O", "note": "(stereo not drawn) [DIMEA, hexakis(2,6-di-O-methyl)-alpha-cyclodextrin]", "values": [
      {"measurement": "Lysosomal accumulation of GM1", "setting": "[1]", "value": "reduced lysosomal accumulation of GM1"}
    ]}
  ]
}
